# According to patent US4414408A, “Phenolic antioxidants” (The Goodyear Tire & Rubber Company, priority 1982, dated 1983):
# Test: Oxygen absorption (time to absorb one percent oxygen)
# Conditions: 1.0 part antioxidant in SBR-1006
smiles,measurement,value
"C=CC(=O)Oc1c(Cc2cc(C)cc(C(C)(C)C)c2O)cc(C)cc1C(C)(C)C [Example 8, 2-(2-hydroxy-3-tert.butyl-5-methylbenzyl)-4-methyl-6-tert.butyl phenyl acrylate]",Hours to Absorb 1% O2,315 h
